# Test results as given in PMC13183915, “A platinum butterfly effect: small changes turn an anticancer drug into a non-toxic metalloantibiotic with in vivo efficacy” (npj Antimicrobials and Resistance, 2026).
# “And” between values parts separate entries of the source, which are not always exact repeats. Identical values can stand only once.
# How the values were obtained:
# [1] = tested on: MRSA NRS 119; assay: Broth microdilution MIC, MRSA NRS 119; format: cell-based, S. aureus; settings: MRSA NRS 119
# Experimental: The data is given in supporting information (Table S5). Before starting the experiment, a single colony was picked from MHA plate, inoculated in MHBII and incubated overnight at 37 °C with shaking for 18–24 h to get the starter culture. Antibiotic susceptibility testing was conducted according to the CLSI (Clinical & Laboratory Standards Institute) guidelines using the broth microdilution assay. 10 mg/mL stock solutions of test compounds were prepared in DMSO. Bacterial cultures were inoculated in MHBII and optical density (OD) was measured at 600 nm, followed by dilution to achieve ~10^6 CFU/mL. The compounds were tested from 64 to 0.5 mg/L in two-fold serial diluted fashion with 2.5 μL of each concentration added to well of a 96-well round bottom microtiter plate. Later, 97.5 μL of bacterial suspension was added to each well containing either test compound or appropriate controls. […] The MIC is defined as the lowest concentration of the compound at which there is absence of visible growth. For each test compound, MIC determinations were carried out independently three times using duplicate samples.
# [2] = tested on: B. subtilis 168CA; assay: Optimal stressor concentration, acute shock growth curves; format: cell-based, Bacillus subtilis; settings: after compound addition
# Experimental: To establish a starting concentration for the OSC assay, MICs against parent strain 168CA were determined under conditions equivalent to those used for mode of action assays. […] MICs were used as basis for OSC determination. To this end, growth curves were recorded using optical density (OD) measurements. Culture volumes of 20 mL were grown until reaching an OD600 of 0.3. Subsequently, the parent culture was split into 2 ml aliquots, followed by addition of different MIC multiples of Pt compounds[71]. An untreated culture served as control. Growth was followed until cultures reached the stationary phase. A concentration achieving 50–70% growth inhibition in exponential phase was selected as optimal stressor concentration. […] As controls, 0.23 µM nisin, 0.53 µM µM gramicidin, 100 µM CCCP, 0.67 µM vancomycin, 1.2 µM rifampicin, and 323.12 µM chloramphenicol were included as controls for specific assays as appropriate.
# [3] = tested on: λ-phage DNA; assay: Single-molecule imaging of YOYO-1-labeled λ-DNA, DNA length analysis; format: biochemical
# [4] = tested on: Vero cells; assay: Cytotoxicity against Vero cells (MTT assay); format: cell-based, African Green Monkey; settings: 72 h
# Experimental: Cell toxicity was performed against Vero cells using the MTT assay. ~10^3 cells/well were seeded in 96 well plate and incubated at 37 °C with 5% CO2 atmosphere. […] After the incubation was over, MTT was added in each well, incubated at 37 °C for further 4 h, residual medium was discarded, 0.1 mL of DMSO was added to solubilize the formazan crystals and OD540 was taken for the calculation of IC50. Doxorubicin was used as positive control and each experiment was repeated in triplicate.
smiles,measurement,setting,value
C1=C\CC/C=C\CC/1.[Cl][Pt][Cl] [Pt1],MIC,[1],0.125 – 0.25 µg/mL and 0.33–0.67 µM
same,delay until the onset of growth inhibition,[2],~ 30 min
same,DNA molecule length shift,"[3]; 3.125 µM Pt1, 25 µM Pt8, 100 µM CisPt, 10 min",shorter fragments
same,DNA fragmentation at swapped (equimolar comparison) concentrations,"[3]; 25 µM Pt1, 3.125 µM Pt8",stronger DNA fragmentation
same,IC50,[4],> 134 µM
